In patent US12448391B2, “Bicyclic derivatives for treating endoparasites” (Elanco Tiergesundheit AG, priority 2019, dated 2025):

Each molecule was assayed on H. contortus larvae (assay: H. contortus Larval Development Assay (Hc LDA)). Settings: Haemonchus contortus, read-out: EC50 (motility inhibition).
Protocol: Ruminant Gastrointestinal (H. contortus Larval Development Assay (Hc LDA)):
H.c. eggs isolated from lamb fecal matter are allowed to hatch overnight. Test compounds are diluted in DMSO and added to a 96-well plate containing appropriate media. H.c. larvae are added to each well and plates are incubated for the desired time(s). Motility is assessed using an LCD camera imaging system. Percent motility inhibition values are generated relative to the average of the DMSO-only wells.

Compound | EC50 [µg/mL]
O=C(NN1CCOc2ccccc21)c1cnc2c(-c3cc(Cl)c(F)c(Cl)c3F)cccc2c1N1CCOCC1 [Example 5.23, 8-(3,5-dichloro-2,4-difluoro-phenyl)-N-(2,3-dihydro-1,4-benzoxazin-4-yl)-4-morpholino-quinoline-3-carboxamide] | < 1

These molecules were tested on D. immitis microfilariae (assay: Dog heart worm microfilariae motility assay). Settings: Dirofilaria immitis, read-out: EC50 (motility inhibition).
Format: cell-based

Compound | EC50 [µg/mL]
O=C(NN1CCOc2ccccc21)c1cnc2c(-c3cc(Cl)c(F)c(Cl)c3F)cccc2c1N1CCOCC1 [Example 5.23, 8-(3,5-dichloro-2,4-difluoro-phenyl)-N-(2,3-dihydro-1,4-benzoxazin-4-yl)-4-morpholino-quinoline-3-carboxamide] | < 0.1

What follows are molecules tested on Caenorhabditis elegans (assay: C. elegans development assay (Ce DA)). Settings: 48 h, read-out: EC90 (motility reduction).
Protocol: Caenorhabditis elegans (Ce): C. elegans development assay (Ce DA) measures the effect of compounds on developing nematodes. Eggs of C. elegans are deposited in a 384 well plate together with food (E. coli) and the treatment formulated in DMSO. Plates are incubated at 25° C. for 48 h to allow the development of nematodes up to the L4-stage. The effect of compounds is measured as motility reduction. Efficacy is expressed in % motility reduction compared to negative controls.

Compound | EC90 [µg/mL]
O=C(NN1CCOc2ccccc21)c1cnc2c(-c3cc(Cl)c(F)c(Cl)c3F)c(F)ccc2c1C1CC1 [Example 5.58, 4-cyclopropyl-8-(3,5-dichloro-2,4-difluoro-phenyl)-N-(2,3-dihydro-1,4-benzoxazin-4-yl)-7-fluoro-quinoline-3-carboxamide] | < 1
O=C(NN1CCOc2ccccc21)c1cnc2c(-c3cc(Cl)c(F)c(Cl)c3F)cccc2c1N1CCOCC1 [Example 5.23, 8-(3,5-dichloro-2,4-difluoro-phenyl)-N-(2,3-dihydro-1,4-benzoxazin-4-yl)-4-morpholino-quinoline-3-carboxamide] | < 1
O=C(NN1CCOc2ccccc21)c1cnc2c(-c3cc(F)nc(F)c3F)cccc2c1N1CCOCC1 [Example 5.49, N-(2,3-dihydro-1,4-benzoxazin-4-yl)-4-morpholino-8-(2,3,6-trifluoro-4-pyridyl)quinoline-3-carboxamide] | < 1
O=C(NN1CCOc2ccccc21)c1cnc2c(-c3c(F)c(F)cc(F)c3F)cccc2c1N1CCOCC1 [Example 5.57, N-(2,3-dihydro-1,4-benzoxazin-4-yl)-4-morpholino-8-(2,3,5,6-tetrafluorophenyl)quinoline-3-carboxamide] | < 1
O=C(NN1CCOc2ccccc21)c1cnc2c(-c3cc(F)cc(F)c3F)cccc2c1C1CC1 [Example 5.36, 4-cyclopropyl-N-(2,3-dihydro-1,4-benzoxazin-4-yl)-8-(2,3,5-trifluorophenyl)quinoline-3-carboxamide] | < 1
O=C(NN1CCOc2ccccc21)c1cnc2c(-c3cc(C(F)(F)F)cc(C(F)(F)F)c3)c(F)ccc2c1N1CCOCC1 [Example 5.59, 8-[3,5-bis(trifluoromethyl)phenyl]-N-(2,3-dihydro-1,4-benzoxazin-4-yl)-7-fluoro-4-morpholino-quinoline-3-carboxamide] | < 1
O=C(NN1CCOc2ccccc21)c1cnc2c(-c3cc(Cl)c(F)c(Cl)c3F)c(F)ccc2c1N1CCOCC1 [Example 5.48, 8-(3,5-dichloro-2,4-difluoro-phenyl)-N-(2,3-dihydro-1,4-benzoxazin-4-yl)-7-fluoro-4-morpholino-quinoline-3-carboxamide] | < 1
O=C(NN1CCc2ccccc21)c1cnc2c(-c3cc(Cl)c(F)c(Cl)c3F)c(F)ccc2c1N1CCOCC1 [Example 5.54, 8-(3,5-dichloro-2,4-difluoro-phenyl)-7-fluoro-N-indolin-1-yl-4-morpholino-quinoline-3-carboxamide] | < 1
O=C(NN1CCOc2ccccc21)c1cnc2c(-c3cc(Cl)cc(F)c3F)c(F)ccc2c1N1CCOCC1 [Example 5.60, 8-(5-chloro-2,3-difluoro-phenyl)-N-(2,3-dihydro-1,4-benzoxazin-4-yl)-7-fluoro-4-morpholino-quinoline-3-carboxamide] | < 1
O=C(NN1CCOc2ccccc21)c1cnc2c(-c3cc(Cl)cc(Cl)c3F)c(F)ccc2c1N1CCOCC1 [Example 5.47, 8-(3,5-dichloro-2-fluoro-phenyl)-N-(2,3-dihydro-1,4-benzoxazin-4-yl)-7-fluoro-4-morpholino-quinoline-3-carboxamide] | < 1
